The results in this text go back to patent publication US12673947B2 (Cytosinlab Therapeutics Co., Ltd., priority 2020, dated 2026).

Bounds are passed on as bounds.

The target of the experiment is T1, FLT3 (Homo sapiens, UniProt P36888).
T1 construct: purchased Carna 08-145
T1 sequence (P36888 27-993): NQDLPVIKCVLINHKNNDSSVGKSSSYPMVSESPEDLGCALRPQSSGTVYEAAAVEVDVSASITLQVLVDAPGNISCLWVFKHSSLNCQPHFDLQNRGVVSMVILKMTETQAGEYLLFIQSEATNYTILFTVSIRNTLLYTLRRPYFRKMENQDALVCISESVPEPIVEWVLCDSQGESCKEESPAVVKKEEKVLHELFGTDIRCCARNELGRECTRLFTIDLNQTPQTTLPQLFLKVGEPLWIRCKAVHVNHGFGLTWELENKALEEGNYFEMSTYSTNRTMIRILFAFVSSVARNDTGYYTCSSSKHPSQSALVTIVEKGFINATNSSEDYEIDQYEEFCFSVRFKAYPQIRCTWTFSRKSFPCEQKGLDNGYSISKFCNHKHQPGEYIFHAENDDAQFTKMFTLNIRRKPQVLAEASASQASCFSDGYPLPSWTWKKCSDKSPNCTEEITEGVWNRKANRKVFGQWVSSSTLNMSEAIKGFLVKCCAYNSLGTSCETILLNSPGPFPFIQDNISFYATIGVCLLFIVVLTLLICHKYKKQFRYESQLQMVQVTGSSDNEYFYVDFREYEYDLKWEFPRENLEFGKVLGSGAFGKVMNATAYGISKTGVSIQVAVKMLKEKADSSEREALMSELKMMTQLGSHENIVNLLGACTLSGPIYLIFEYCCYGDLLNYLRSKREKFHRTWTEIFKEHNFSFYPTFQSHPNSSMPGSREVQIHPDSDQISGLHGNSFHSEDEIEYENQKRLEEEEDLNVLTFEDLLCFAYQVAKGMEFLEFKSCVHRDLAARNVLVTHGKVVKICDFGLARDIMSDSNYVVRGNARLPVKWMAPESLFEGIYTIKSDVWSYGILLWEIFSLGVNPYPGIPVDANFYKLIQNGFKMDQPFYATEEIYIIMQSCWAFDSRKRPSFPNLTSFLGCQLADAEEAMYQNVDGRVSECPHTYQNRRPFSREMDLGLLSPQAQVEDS
Put plainly: FLT3 kinase in vitro inhibitory activity experiment (Caliper mobility shift, conversion rate). In kind it is biochemical. The following applies: IC50 class, read-out: Enzyme activity FLT3. How it is done:
Biological Test Example 1: FLT3 Kinase In Vitro Inhibitory Activity Experiment
Centrifuge (manufacturer: Eppendorf, model: 5430), microplate reader (manufacturer: Perkin Elmer, model: Caliper EZ Reader II), Echo 550 (manufacturer: Labcyte, model: Echo 550)
1. Kinase Reaction Process
• (1) 1×Kinase buffer was prepared. • (2) Preparation of the serial compound dilutions: the initial stock (the concentration of the tested compound was 1 μM) was diluted by 3-fold into 10 concentrations, and was single-well detected. The compounds were series diluted to solutions of 10 different concentration (100-folds final concentration) in 384-well plates. 250 nl of solution was transferred to each well of 384-well plate by Echo550. 100% DMSO (250 nl) was added to negative control wells and positive control wells respectively. • (3) Kinase solution (2.5 times final concentration) was prepared with 1×Kinase buffer. • (4) 10 μL of kinase solution (2.5 times final concentration) was added to compound wells and positive control wells respectively: 1×Kinase buffer (10 μL) was added to the negative control wells. • (5) The solution was centrifuged at 1000 rpm for 30 seconds, shaked and mixed, and incubated at room temperature for 10 minutes. • (6) The mixed solution of ATP and Kinase substrate 2 (25/15 times final concentration) was prepared with 1×Kinase buffer. • (7) 15 μL of mixed solution ATP and Kinase substrate 2 (25/15 times final concentration) was added to initiated the reaction. • (8) 384 well plate was centrifuged at 1000 rpm for 30 seconds, shaked and mixed, then incubated at room temperature for 30 minutes. • (9) Stop solution (30 μL) was added to stop kinase reaction, and the solution was centrifuged at 1000 rpm for 30 seconds, shaked and mixed. • (10) The conversion rate was read with Caliper EZ Reader II. 2. Data Analysis Formula for Calculation
Wherein: Conversion %_sample is the reading of the sample conversion; Conversion %_min: negative control well.

With `CCc1nc2c(N)ncc(-c3ccc(N4CCC(N5CCN(C)CC5)CC4)c(S(C)(=O)=O)c3)c2nc1NC1CCOCC1` [Compound 18, 3-ethyl-8-(4-(4-(4-methylpiperazine-1-yl)piperidine-1-yl)-3-(methylsulfyl)phenyl)-N2-(tetrahydro-2H-pyran-4-yl) pyridino [3,4-b] pyrazine-2,5-diamine], the IC50 was in the range of 10 to 100 nM. In the case of `CCc1nc2c(N)ncc(-c3ccc(N4CCC(N5CCN(C)CC5)CC4)c(C(C)(C)O)c3)c2nc1NC1CCOCC1` [Compound 19, 2-(5-(5-amino-3-ethyl-2-((tetrahydro-2H-pyran-4-yl)amino)pyridino[3,4-b]pyrazine-8-yl)-2-(4-(4-methylpiperazine-1-yl)piperidine-1-yl)phenyl)propan-2-ol], the IC50 is ≤ 10 nM. For `COc1cc(-c2cnc(N)c3ncc(NC4CCOCC4)nc23)ccc1N1CCC(N2CCN(C)CC2)CC1` [Compound 25] the value was 10 to 100 nM; for `CCc1nc2c(N)ncc(-c3ccn(C)c3)c2nc1NC1CCOCC1` [Compound 56], 10 to 100 nM. Regarding `CCc1nc2c(N)ncc(-c3cnn(C)c3)c2nc1NC1CCOCC1` [Compound 57], the IC50 lay within 10 to 100 nM.

In the case of `CCc1nc2c(N)ncc(-c3ccc4c(c3)OCCN4C)c2nc1NC1CCOCC1` [Compound 61], the IC50 lay in the range of 10 to 100 nM. For `CCc1nc2c(N)ncc(-c3ccc(N4CCC(N5CCN(C)CC5)CC4)c(OC)c3)c2nc1NC` [Compound 76] the value was 10 to 100 nM.

For `CCc1nc2c(N)ncc(-c3ccc(N4CCC(N5CCN(C)CC5)CC4)c(OC)c3)c2nc1N[C@H]1CC[C@@H](O)CC1` [Compound 82], the IC50 was ≤ 10 nM. The result for `CCc1nc2c(N)ncc(-c3cnn(CC4CCN(C)CC4)c3)c2nc1NC1CCOCC1` [Compound 137] reads ≤ 10 nM; that for `CCc1nc2c(N)ncc(Br)c2nc1N[C@@H]1CC[C@H](O)C1` [Compound 151, (1S, 3R)-3-((5-amino-8-bromo-3-ethylpyridino[3,4-b]pyrazine-2-yl)amino)cyclopentan-1-ol], 100 to 500 nM; that for `CCc1nc2c(N)ncc(-c3cnn(CC4CCNCC4)c3)c2nc1NC1CCOCC1` [Compound 154], ≤ 10 nM.

In the case of `CCc1nc2c(N)ncc(-c3cnn(C4CCN(c5cc(F)cc(F)c5)CC4)c3)c2nc1N[C@@H]1CC[C@H](O)C1` [Compound 173], the IC50 is ≤ 10 nM. With `CCc1nc2c(N)ncc(-c3cnn(C4CCN(CCO)CC4)c3)c2nc1N[C@H]1CCOC1` [Compound 229], the IC50 was ≤ 10 nM. `CCc1nc2c(N)ncc(-c3cnn(C(C)C)c3)c2nc1N[C@H]1CCOC1` [Compound 230]: the IC50 was ≤ 10 nM.

As for `CCc1nc2c(N)ncc(-c3cnn(C4COC4)c3)c2nc1N[C@H]1CCOC1` [Compound 231], the IC50 is ≤ 10 nM. Regarding `CCc1nc2c(N)ncc(-c3cnn(C4CCN(C5CCN(C)CC5)CC4)c3)c2nc1N[C@@H]1CCOC1` [Compound 250], the IC50 is ≤ 10 nM. For `CCc1nc2c(N)ncc(-c3ccc(N4CCC(N5CCN(C)CC5)CC4)c(OC)c3)c2nc1N[C@H]1CCC[C@@H](O)C1` [Compound 255] the value was ≤ 10 nM; for `CCc1nc2c(N)ncc(-c3ccc(N4CCC(N5CCN(C)CC5)CC4)c(OC)c3)c2nc1N[C@H]1CCC[C@H](O)C1` [Compound 256], ≤ 10 nM; for `CCc1nc2c(N)ncc(-c3cnn(C4CCNCC4)c3)c2nc1N[C@@H]1CCOC1` [Compound 258], ≤ 10 nM. The result for `CCc1nc2c(N)ncc(-c3cnn(C4CCNCC4)c3)c2nc1N[C@H]1CCOC1` [Compound 259, (S)-3-ethyl-8-(1-(piperidin-4-yl)-1H-pyrazol-4-yl)-N2-(tetrahydrofuran-3-yl)pyridino[3,4-b]pyrazin-2,5-diamine] reads ≤ 10 nM. For `CCc1nc2c(Nc3cccnc3)ncc(-c3cnn(C4CCNCC4)c3)c2nc1N[C@@H]1CC[C@H](O)C1` [Compound 262] the value was 10 to 100 nM; for `CCc1nc2c(N)nccc2nc1N[C@@H]1CC[C@H](O)C1` [Compound 263, (1S,3R)-3-((5-amino-3-ethylpyridino[3,4-b]pyrazine-2-yl)amino)cyclopentan-1-ol], > 500 nM.
